From ChEMBL document CHEMBL1201862, “PubChem BioAssay data set” (2004)
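Interpolation was linear, between the two tested concentrations surrounding the appropriate level; five concentrations were tested over 48 hours in 96-well plates. Abbreviation: GI50, concentration required for 50% inhibition of growth.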 The source made the active and inactive calls. No stated cut-off is given here; in the data, active = GI50 up to about 1.1 µM and inactive = higher.

Experiments:
Experiment in all cases: NCI-60 cell line screen, 48 h
ACHN = tested on: ACHN
HCC 2998 = tested on: HCC 2998
A498 = tested on: A498
HOP-92 = tested on: HOP-92
OVCAR-8 = tested on: OVCAR-8
OVCAR-4 = tested on: OVCAR-4
K562 = tested on: K562
M14 = tested on: M14
UACC-62 = tested on: UACC-62
NCI/ADR-RES = tested on: NCI/ADR-RES
OVCAR-3 = tested on: OVCAR-3
OVCAR-5 = tested on: OVCAR-5
NCI-H522 = tested on: NCI-H522
TK-10 = tested on: TK-10
UO-31 = tested on: UO-31
SK-MEL-5 = tested on: SK-MEL-5
SNB-75 = tested on: SNB-75
LOX IMVI = tested on: LOX IMVI
U-251 = tested on: U-251
M19-MEL = tested on: M19-MEL

SMILES	GI50 (ACHN)	GI50 (HCC 2998)	GI50 (A498)	GI50 (HOP-92)	GI50 (OVCAR-8)	GI50 (OVCAR-4)	GI50 (K562)	GI50 (M14)	GI50 (UACC-62)	GI50 (NCI/ADR-RES)	GI50 (OVCAR-3)	GI50 (OVCAR-5)	GI50 (NCI-H522)	GI50 (TK-10)	GI50 (UO-31)	GI50 (SK-MEL-5)	GI50 (SNB-75)	GI50 (LOX IMVI)	GI50 (U-251)	GI50 (M19-MEL)
O=C1CCC2(CC1CC[S+]([O-])c1ccccc1)OCCO2 (centres undefined)	> 100 µM (inactive)	> 100 µM (inactive)	> 100 µM (inactive)	> 100 µM (inactive)	> 100 µM (inactive)	> 100 µM (inactive)	> 100 µM (inactive)	> 100 µM (inactive)	> 100 µM (inactive)	> 100 µM (inactive)	> 100 µM (inactive)	> 100 µM (inactive)	> 100 µM (inactive)	> 100 µM (inactive)	> 100 µM (inactive)	> 100 µM (inactive)	> 100 µM (inactive)	> 100 µM (inactive)	> 100 µM (inactive)	
COC(=O)c1ccc(NCC2=CC(=O)C=CC2=O)cc1	14 µM (inactive)	21.6 µM (inactive)	14.5 µM (inactive)	3.43 µM (inactive)	13.9 µM (inactive)	12.4 µM (inactive)	2.69 µM (inactive)	4.06 µM (inactive)	14.6 µM (inactive)	4.38 µM (inactive)	1.79 µM (inactive)	16.7 µM (inactive)	1.7 µM (inactive)	10.8 µM (inactive)	7.08 µM (inactive)	18.5 µM (inactive)	16.3 µM (inactive)	5 µM (inactive)	13.6 µM (inactive)	
COCC(/N=C\N1CCCc2ccccc2[C@@H]1CCCCl)C(C)(C)C (some centres undefined)	16.9 µM (inactive)	13.3 µM (inactive)	13.2 µM (inactive)	7.19 µM (inactive)	15.5 µM (inactive)	1.97 µM (inactive)	0.512 µM (active)	4.55 µM (inactive)	10.3 µM (inactive)	0.392 µM (active)	0.209 µM (active)	13.6 µM (inactive)	0.557 µM (active)	9.93 µM (inactive)	12.2 µM (inactive)	1.31 µM (inactive)	3.01 µM (inactive)	8.41 µM (inactive)	6.89 µM (inactive)	
Nc1nc(SCC(=O)c2ccccc2)nc2nc3c(c(-c4ccccc4)c12)CCCC3	56.6 µM (inactive)	33 µM (inactive)	19.8 µM (inactive)	> 10 µM (inactive)	27.2 µM (inactive)	23.4 µM (inactive)	> 100 µM (inactive)	19.2 µM (inactive)	23.3 µM (inactive)	25.6 µM (inactive)	22.5 µM (inactive)	52 µM (inactive)	31.2 µM (inactive)	> 100 µM (inactive)	12.4 µM (inactive)	49.1 µM (inactive)	26.4 µM (inactive)	24.8 µM (inactive)	32 µM (inactive)	
O=C(Nc1ccc(Cl)cc1Cl)OC(Cn1cncn1)c1ccc(Cl)cc1Cl (centres undefined)	15.5 µM (inactive)		20 µM (inactive)		17.3 µM (inactive)	14.4 µM (inactive)	15.3 µM (inactive)	17.9 µM (inactive)	14.8 µM (inactive)		15.8 µM (inactive)		16.3 µM (inactive)		13.2 µM (inactive)	16.7 µM (inactive)	16.1 µM (inactive)	16.3 µM (inactive)	16.1 µM (inactive)	17.1 µM (inactive)
CC(C)(C)OC(=O)NCCCNC1(c2cc3ccccc3s2)CCCCC1	19.2 µM (inactive)	3.56 µM (inactive)	15.6 µM (inactive)	10 µM (inactive)	17.2 µM (inactive)	15.2 µM (inactive)	10.5 µM (inactive)	12 µM (inactive)	17.4 µM (inactive)	15.2 µM (inactive)	13.8 µM (inactive)	13.7 µM (inactive)	14.2 µM (inactive)	16.6 µM (inactive)	12.6 µM (inactive)	13.9 µM (inactive)	15.6 µM (inactive)	16.8 µM (inactive)	21.3 µM (inactive)	
COc1ccc2c(c1OC)CN1CCc3cc4c(cc3C1C2)OCO4 (centres undefined) [TETRAHYDROBERBERINE]	> 100 µM (inactive)	> 100 µM (inactive)	> 100 µM (inactive)	> 100 µM (inactive)	> 100 µM (inactive)	> 100 µM (inactive)	80 µM (inactive)	> 100 µM (inactive)	> 100 µM (inactive)	> 100 µM (inactive)	> 100 µM (inactive)	> 100 µM (inactive)	> 100 µM (inactive)	> 100 µM (inactive)	> 100 µM (inactive)	> 100 µM (inactive)	> 100 µM (inactive)	> 100 µM (inactive)	> 100 µM (inactive)	
